From US8359784B2, “Method for controlling subterranean termite activity by forming a barrier” (FMC Corporation, priority 2009, dated 2013)

Test system: Formosean subterranean termites (Coptotermes formosanus)
Assay: Subterranean termite activity on treated wooden frame structures (sheds), field test
Format: in vivo
Text: Twelve wooden frame structures (4 ft by 3 ft by 4 ft high, four to receive treatment with a bifenthrin solution, four to receive a commercial borate standard treatment and four to be used as untreated controls) were built on one inch thick concrete pads in an area of high subterranean termite pressure, Formosean subterranean termites (Coptotermes formosanus). The structures were constructed using pressure treated sill plates, untreated southern yellow pine studs and untreated plywood walls. A two inch diameter polyethylene pipe was installed in a hole in the center of each concrete pad to simulate a plumbing drain installation, leaving a small gap between the pad and the pipe. A piece of wood was inserted in the gap to encourage local termite pressure. […] Termite activity surrounding each structure was monitored by installing commercially available in-ground termite monitors (FIRSTLINE® Defender kits available from FMC Corporation) about one foot from each outside face, a total of four monitors per structure. […] Termite activity was measured in each structure by visually inspecting the inside and outside walls and the area around the polyethylene pipe for termite damage and for construction of shelter tubes at for up to 18 months after treatment. […]

Cc1c(COC(=O)[C@@H]2[C@H](/C=C(\Cl)C(F)(F)F)C2(C)C)cccc1-c1ccccc1 (racemic) [Bifenthrin, 2-methylbiphenyl-3-ylmethyl (Z)-(1RS)-cis-3-(2-chloro-3,3,3-trifluoroprop-1-enyl)-2,2-dimethyl cyclopropanecarboxylate]
Termite damage or damage to the wood piece inserted in the simulated plumbing drain hole (up to 18 months after treatment): None of the bifenthrin treated structures had any indication of termite damage or damage to the wood piece
Damage to structures due to termite activity (visual inspection up to 18 months after treatment): very little or no damage due to termite activity
